pKi: −log10 of the molar value. Values belong to the compound of their own block, whether it stands above or below them.
Legend:
Blood kinetics = format: in vivo, dog (male beagle); settings: 10 mg/kg, plasma; for Cmax / half-life: beagle dog; for Cmax: HPLC; for bioavailability: dog, po, read-out: Extent of Bioavailability; for half-life: estimated from intravenous administration
Experimental: Evaluation Example 7 (Blood kinetics)
For the experiment, male beagle dogs were employed. A test drug was intravenously or orally administered in a dose of 10 mg/kg. Blood samples were collected at 0.25, 0.5, 1, 2, 4, 6 and 24 hours after administering the test drug, and the samples were centrifuged to separate plasma, for which a plasma level of the test drug was determined by HPLC. Half-life of the test drug in blood was estimated from the results at the intravenous administration. An extent of bioavailability is expressed as a rate of AUC at the oral administration to AUC at the intravenous administration.

[1] = Safety: simple acute toxicity for a mouse; format: in vivo
Experimental: Evaluation Example 8 (Safety)
For the experiment, male Std:ddY mice aged 5 weeks were used. The mice were weighed, and then calmed in an observation cage for more than 1 hour. To the mice, a test drug was orally administered in a dose of 300 mg/kg to observe them for general symptoms until 2 hours.

[2] = tested on: head weaving behavior induced by a receptor agonist SKF-10047; experiment: Persistence of anti-SKF effect (SKF-10047 4 hours after test drug); format: in vivo, mouse (male ddY); settings: mouse, oral, SKF-10047 20 mg/kg s.c. 4 hours after test drug
Experimental: Evaluation Example 5 (Persistence of anti-SKF effect) Procedure
(§1) Persistence of antipsychotic activity for a test drug was studied by means of head weaving behavior induced by a receptor agonist SKF-10047 for a mouse. For the experiment were used 10 male ddY mice aged 5 weeks (Nippon SLC) per a group. The mice were placed in a measuring cage and calmed 1 hour before the initiation of the test. To the mice was orally administered a test drug and after 4 hours was subcutaneously administered SKF-10047 in a dose of 20 mg/kg. After 20 min, head weaving was counted for 10 min.

[3] = tested on: reverse tolerance development to methamphetamine (stereotyped behavior); experiment: Effect on reverse tolerance development due to repetitive administration of methamphetamine; format: in vivo, rat (male Std:Wistar(ST)); settings: rat
Experimental: Evaluation Example 6 (Effect to reverse tolerance development due to repetitive administration of methamphetamine) For the experiment, male Std:Wistar(ST) rat (Nippon SLC) aged 5 weeks were used. A test drug, the compound of formula (IV) described in JP-A 7-252219 or the compound of formula (V) described in JP-A 9-40667 was dissolved in purified water or 0.5% C.M.C./saline. Methamphetamine (mAMP) was dissolved in saline. Dosage volume was 1 mL/kg body weight.
The drugs were repetitively administered for 10 days with a regimen that to a rat, a test drug was orally or intraperitoneally administered and after 60 min mAMP was intraperitoneally administered in a dose of 2 mg/kg. To a normal group, solvent alone was administered in place of the combination of the test drug and mAMP. To a control group, solvent was orally or intraperitoneally administered, and then intraperitoneally mAMP was additionally administered.
After the repetitive administration, there was provided a withdrawal period for 7 days during which the test drug or mAMP was not administered. After the withdrawal, the test drug was discontinued and mAMP was administered in a dose of 2 mg/kg, and then stereotyped behavior of the animal was observed.
After administering mAMP, stereotyped behavior was rated in accordance with the following scale, for 1 min every 10 min until 60 min.
The results are expressed as an inhibition (%) of reverse tolerance development calculated from the following equation, using a total score for six minutes: Inhibition of reverse tolerance development (%)=100-A […]
wherein A represents a value calculated from the following equation:
A=[{(Score for the test drug group)-(Score for the normal group)}/{(Score for the control group)-(Score for the normal group)}]×100

D2 receptor = target: T1, D2 receptor (Rattus norvegicus, UniProt P61169); experiment: Radioreceptor assay for D2 receptor (3H-spiperone, cerebral striatal homogenate); format: binding; settings: read-out: Affinity for a receptor, Ki D2
T1 construct: from tissue; host or cells: rat cerebral striatal homogenate
T1 sequence (P61169 whole entry): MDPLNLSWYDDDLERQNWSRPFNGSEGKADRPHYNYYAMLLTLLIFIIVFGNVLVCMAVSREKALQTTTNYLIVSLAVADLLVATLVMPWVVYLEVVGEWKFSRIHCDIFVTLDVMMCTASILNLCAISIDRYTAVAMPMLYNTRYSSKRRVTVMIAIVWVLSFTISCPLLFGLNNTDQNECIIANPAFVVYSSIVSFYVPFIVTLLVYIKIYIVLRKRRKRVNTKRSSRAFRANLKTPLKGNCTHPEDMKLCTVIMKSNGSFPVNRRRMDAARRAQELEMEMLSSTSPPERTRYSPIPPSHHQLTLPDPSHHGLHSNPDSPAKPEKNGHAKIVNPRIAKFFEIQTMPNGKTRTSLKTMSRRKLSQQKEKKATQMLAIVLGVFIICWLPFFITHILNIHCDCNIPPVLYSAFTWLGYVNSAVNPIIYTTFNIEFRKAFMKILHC
Experimental: Evaluation Example 2 (Radioreceptor assay for D2 receptor) ^3 H-spiperone (Amersham) and a test drug were incubated with a homogenate of rat cerebral striatal site as described in D. R. Burt et al., Proc.Natl.Acad.Sci.U.S.A. 72:4655 (1975), and Ki value was determined as described in the above r radioreceptor assay.

σ1 receptor = target: T2, σ1 receptor (Cavia porcellus, UniProt Q60492); experiment: Radioreceptor assay for a σ1 receptor (3H-(+)pentazocine binding, whole brain P2 fraction); settings: guinea pig brain P2 fraction, 3 nM 3H-(+)pentazocine, room temperature, 2 hours; read-out: Affinity for a receptor, Ki σ1
T2 construct: prepared from a whole brain of a guinea pig without cerebellum and medulla; from tissue; host or cells: P2 fraction of guinea pig whole brain without cerebellum and medulla
T2 sequence (Q60492 whole entry): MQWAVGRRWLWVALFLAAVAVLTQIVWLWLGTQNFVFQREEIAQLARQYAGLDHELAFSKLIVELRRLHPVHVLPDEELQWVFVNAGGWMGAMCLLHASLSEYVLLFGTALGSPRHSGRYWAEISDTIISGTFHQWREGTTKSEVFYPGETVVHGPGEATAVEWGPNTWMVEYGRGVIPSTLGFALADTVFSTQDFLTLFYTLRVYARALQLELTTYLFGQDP

[4] = tested on: head weaving behavior induced by phencyclidine (PCP); experiment: Anti-PCP effect: inhibition of phencyclidine-induced head weaving; format: in vivo, rat (male Wistar(ST)); settings: oral treatment before 60 min, PCP 7.5 mg/kg i.p.; for ED50 Anti-PCP: rat, 60 min; for ED50: Rattus norvegicus, po, 1 h
Experimental: Evaluation Example 4 (Anti-PCP effect)
Antipsychotic activity for a test drug was studied by means of head weaving behavior induced by phencyclidine (PCP) for a rat. For the experiment were used male Wistar(ST) rats aged 4weeks (Nippon SLC). The rats were placed in a measuring cage and calmed 1 hour before the initiation of the test. To the rats was orally administered a test drug and after 60 min was intraperitoneally administered PCP in a dose of 7.5 mg/kg. After 20 min, head weaving was counted for 10 min. Efficacy of the drug was evaluated by determining an inhibition (%) compared with the control group from the average of the scores of the test-drug groups, and then estimating a ED50 value.

sigma receptor = settings: background; cited from earlier work
[5] = tested on: head weaving behavior induced by a σ-receptor agonist SKF-10047; experiment: Anti-SKF effect: inhibition of SKF-10047-induced head weaving; format: in vivo, mouse (male ddY); settings: 1 h; mouse, oral treatment before 60 min; SKF-10047 20 mg/kg s.c.
Experimental: Evaluation Example 3 (Anti-SKF effect)
as §1, with “Antipsychotic” for “Persistence of antipsychotic”, “σ-receptor” for “receptor”, “60 min” for “4 hours”

[6] = 300 mg/kg oral, observed until 2 hours

Structure (SMILES): COC1CCN(C[C@H]2CCN(c3ccc(Cl)cc3)C2=O)CC1 [Compd. of formula (V), reference compound]
Cmax (Blood kinetics): 460 ng/mL | bioavailability (Blood kinetics): 64.3% | half-life (Blood kinetics): 1.5 h | Convulsion/Treatment [1, 6]: 1/3 | Death/Treatment [1, 6]: 0/3 | ED50 [2]: 23.2 mg/kg | Inhibition of reverse tolerance ([3]; 10.0 mg/kg intraperitoneal): 81.7% | Inhibition of reverse tolerance ([3]; 30.0 mg/kg intraperitoneal): 87.8%

pKi (D2 receptor): < 5.48 | pKi (σ1 receptor): 8.00
Structure (SMILES): C#CCOCCN1CCN(CC2CCN(c3ccc(Cl)cc3)C2=O)CC1 (stereo not shown) [compound 10]

Structure (SMILES): CCOCCN1CCN(CC2CCN(c3ccc(Cl)cc3)C2=O)CC1 (stereo not shown) [compound 8]
Convulsion/Treatment [1, 6]: 0/3 | Death/Treatment ([1]; in vivo, po, 300 mg/kg): 0/3 | pKi (D2 receptor): < 5.48 | pKi (σ1 receptor): 7.85

Structure (SMILES): COCCN1CCN(C[C@H]2CCN(c3ccc(Cl)cc3)C2=O)CC1 [compound 39]
ED50 Anti-PCP [4]: 1.08 mg/kg

pKi (D2 receptor): 4.94
Structure (SMILES): C[C@@H]1CN(CCCn2c3ccccc3c3ccccc32)C[C@H](C)N1 [Rimcazole, reference compound]
affinity or specificity to a sigma receptor (sigma receptor): inadequate affinity or specificity to a sigma receptor

Structure (SMILES): COCCN1CCN(C[C@H]2CCN(c3ccc(Cl)cc3)C2=O)CC1 [compound 37]
ED50 Anti-PCP [4]: 1.15 mg/kg

Structure (SMILES): COCCN1CCN(C[C@H]2CCN(c3ccc(Cl)cc3)C2=O)CC1 [compound 21]
ED50 [4]: 0.75 mg/kg | Cmax (Blood kinetics): 1520 ng/mL | bioavailability (Blood kinetics): 83.1% | half-life (Blood kinetics): 3.5 h | ED50 [5]: 0.77 mg/kg | Convulsion/Treatment [1, 6]: 0/4 | Death/Treatment [1, 6]: 0/4 | ED50 [2]: 3.19 mg/kg | pKi (D2 receptor): < 5.41 | pKi (σ1 receptor): 7.14 | Inhibition of reverse tolerance ([3]; 7.5 mg/kg oral): 81.0% | Inhibition of reverse tolerance ([3]; 15.0 mg/kg oral): 93.9%

Structure (SMILES): COCCN1CCN(CC2CCN(c3ccc(Br)cc3)C2=O)CC1 (stereo not shown) [compound 16]
ED50 [4]: 1.9 mg/kg | ED50 [5]: 0.52 mg/kg | Convulsion/Treatment [1, 6]: 0/5 | Death/Treatment ([1]; in vivo, po, 300 mg/kg): 0/5

Structure (SMILES): COCCN1CCN(C[C@H]2CCN(c3ccc(Cl)cc3)C2=O)CC1 [compound 38]
ED50 Anti-PCP [4]: 1.48 mg/kg

Structure (SMILES): COCCN1CCN(CC2CCN(c3ccc(Cl)cc3)C2=O)CC1 (stereo not shown) [compound 2]
ED50 [4]: 1.3 mg/kg | ED50 [5]: 2.1 mg/kg | Convulsion/Treatment [1, 6]: 0/6 | Death/Treatment ([1]; in vivo, po, 300 mg/kg): 0/6 | pKi (D2 receptor): < 5.48 | pKi (σ1 receptor): 7.07

Structure (SMILES): CCCCN1CCN(CC2CCN(c3cccc(C(F)(F)F)c3)C2=O)CC1 (stereo not shown) [Compound of formula (IV), reference compound]
ED50 [4]: 11 mg/kg | ED50 [5]: 14 mg/kg | Convulsion/Treatment [1, 6]: 5/5 | Death/Treatment [1, 6]: 5/5 | ED50 [2]: > 100 mg/kg | Inhibition of reverse tolerance ([3]; 30.0 mg/kg intraperitoneal): 92.9%

pKi (D2 receptor): < 5.55 | pKi (σ1 receptor): 8.12
Structure (SMILES): COCCN1CCN(CC2CCN(c3cccc(Br)c3)C2=O)CC1 (stereo not shown) [compound 18]
